Peptide text beside a SMILES is read from it.
Biological target: T1, HEG1-KRIT1 interaction (Homo sapiens, UniProt O00522)
T1 construct: His6-EGFP-KRIT1 (WT) FERM domain (417-736) and KRIT1 (L717,721A) mutant were cloned into pETM-11; His6 (N); made in house; host or cells: E. coli BL21 Star (DE3)
Assay: Flow cytometry assay for the HEG1-KRIT1 FERM domain interaction (competition binding on HEG1 matrix beads)
Conditions: Table 2; flow cytometry-screening assay; NI = no inhibition detected up to 500 μM
Procedure: Bead Coupling. SPHERO Neutravidin Polystyrene Particles, […] (Spherotech) were washed twice with wash buffer (20 mM Tris, 150 mM NaCl. pH 7.4 containing 0.01% NP-40, and 1 mM EDTA). Prior to incubation with biotin-tagged HEG 1 cytoplasmic tail protein, an appropriate volume of bead slurry was passivated to inhibit non-specific binding by incubation for 30 minutes at room temperature in reaction buffer containing 0.1% BSA (20 mM Tris, 150 mM NaCl, pH 7.4 0.01% NP-40, 1 mM EDTA, 1 mM DTT, and 0.1% BSA). Passivated beads were collected by centrifugation, resuspended to 3,600 particles/μl in reaction buffer and biotinylated HEG1 tail was added to a final concentration of 150 nM and incubated overnight on a rotator at 4° C. The beads were washed three times by centrifugation with ice-cold reaction buffer to remove unbound HEG1 peptide. Beads were diluted such that a final concentration of 2000 beads/μL were available for addition to assay plates.
Flow cytometry assay. A final volume of 100 μl containing 140 nM EGFP-KRIT1 FERM domain, with 10% DMSO or 10% compounds in DMSO, was incubated for 15 minutes at room temperature on a rotator. 100 μl of beads were added to the mixture for a final volume of 200 μl at 1,000 particles/μl with 70 nM EGFP-KRIT1 and incubated for 15 minutes at room temperature on a rotator. The control beads were: without KRIT1 (minimum signal); with KRIT1 (maximum signal); and with KRIT1 plus 2 μM HEG1 7-mer (positive blocking control). The EGFP fluorescence was measured using a BD Accuri flow cytometer. For screening purposes, the final volume of the reaction was scaled down to 10 μl and samples were processed as previously described (27). For FIGS. 1D-1F, 2B, and 3E, a representative experiment is shown of at the least 3 independent repeats.
Assay plate assembly. Plate assays were performed in 384-well microtiter plates (Greiner Bio-one, #784101). Reaction buffer. HEG1-coupled beads, and EGFP-KRIT-FERM constructs were added using a MultiFlo™ Microplate Dispenser (BioTek Instruments, Inc.). Compounds were added to single-point assay plates pre-loaded with reaction buffer using a Biomek^NX liquid handler (BeckmanCoulter) equipped with a […] pintool (V & P Scientific, Inc.). Compound libraries were dispensed to a final concentration of 10 μM. An equal volume (10 nL) of DMSO was added to the vehicle control wells. Following the addition of library compounds, 5 μL of assay buffer was added and the plates were mixed before addition of 5 μL of the protein-coupled bead mixtures; Plates were protected from light and incubated on a rotator for 15 minutes at room temperature. Binding of EGFP-KRIT to HEG1 coupled beads was evaluated using an Accuri C6 flow cytometer.
Data Acquisition. Assay plates were sampled using the HyperCyt™ high throughput flow cytometry platform (Intellicyt; Albuquerque, N. Mex.). During sampling, the probe moves from well to well and samples 1-2 μL from each well pausing 0.4 sec in the air before sampling the next well. The resulting sample stream consisting of 384 separated samples is delivered to an Accuri C6 flow cytometer (BD Biosciences; San Jose, Calif.). Plate data are acquired as time-resolved files that are parsed by software-based well identification algorithms and merged with compound library files. Plate performance was validated using the Z-prime calculation (28).
Compounds that satisfied hit selection criteria in the primary screen were cherry-picked from compound storage plates and tested to confirm activity and determine potency. Dose response data points were fitted by Prism software (GraphPad Software Inc., San Diego, Calif.) using nonlinear least-squares regression in a sigmoidal dose-response model with variable slope, also known as the 4-parameter logistic equation.

T1 sequence (O00522 417-736): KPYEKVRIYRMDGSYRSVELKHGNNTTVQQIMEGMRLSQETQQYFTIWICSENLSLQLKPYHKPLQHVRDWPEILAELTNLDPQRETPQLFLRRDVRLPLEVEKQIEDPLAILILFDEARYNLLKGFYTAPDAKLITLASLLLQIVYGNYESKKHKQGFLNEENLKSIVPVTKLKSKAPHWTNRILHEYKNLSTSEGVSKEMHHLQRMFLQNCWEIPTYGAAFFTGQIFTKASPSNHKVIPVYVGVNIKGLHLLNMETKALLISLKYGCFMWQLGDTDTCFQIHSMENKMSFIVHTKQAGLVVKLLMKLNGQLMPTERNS

IC50 (μM)	SMILES
precipitation	Oc1ccc2ccccc2c1/C=N/c1ncn[nH]1 [BL-0550, (E)-1-(((1H-1,2,4-triazol-5-yl)imino)methy)naphthalen-2-ol]
precipitation	COC(=O)c1ccccc1NC(=O)c1c(O)ccc2ccccc12 [BL-0589, methyl 2-(2-hydroxy-1-naphthamido)benzoate]
precipitation	Oc1ccc2ccccc2c1/C=N/c1cccnc1 [BL-0551, (E)-1-((pyridin-3-ylimino)methyl)naphthalen-2-ol]

Same assay, conditions: Table 2; flow cytometry-screening assay; NI = no inhibition detected up to 500 μM; read-out: IC50

IC50	SMILES
> 500 µM	Oc1ccc2ccccc2c1C(O)C(F)(F)F (centres unmarked) [BL-706, 1-(2,2,2-Trifluoro-1-hydroxyethyl)naphthalen-2-ol]
> 500 µM	CC(N)c1ccccc1N (centres unmarked) [Compound 5, 2-(1-aminoethyl)aniline]
> 500 µM	ON=Cc1c(O)ccc2ccccc12 [BL-0591, 2-hydroxy-l-naphthaldehyde oxime]
2.6 µM	CN(C)c1ccc2c(C=O)c(O)ccc2c1 [BL-0737, 6-(Dimethylamino)-2-hydroxy-1-naphthaldehyde]
1.8 µM	O=C(O)c1ccc(/N=C/c2c(O)ccc3ccccc23)cc1 [BL-0552, (E)-4-(((2-hydroxynaphthalen-1-yl)methylene)amino)benzoic acid]
3.2 µM	O=Cc1c(O)ccc2cc(Cl)ccc12 [BL-702 (Hki10), 6-chloro-2-hydroxy-1-naphthaldehyde]
3.6 µM	N#Cc1ccc2c(C=O)c(O)ccc2c1 [BL-0788, 5-Formyl-6-hydroxy-2-naphthonitrile]
79.3 µM	CCOC(=O)/C=C/c1ccc2c(C=O)c(O)ccc2c1 [BL-0744, Ethyl (E)-3-(5-formyl-6-hydroxynaphthalen-2-yl)acrylate]
> 500 µM	CC(O)c1c(O)ccc2ccccc12 (centres unmarked) [BL-0713, 1-(1-hydroxyethyl)naphthalen-2-ol]
> 500 µM	O=C(O)c1ccccc1CCc1c(O)ccc2ccccc12 [BL-0606, 2-(2-(2-hydroxynaphthalen-1-yl)ethyl)benzoic acid]
> 500 µM	O=C(O)c1ccccc1NC(=O)c1c(O)ccc2ccccc12 [BL-0590, 2-(2-hydroxy-1-naphthamido)benzoic acid]
1.1 µM	C=CCc1ccc2c(C=O)c(O)ccc2c1 [BL-0739, 6-Allyl-2-hydroxy-1-naphthaldehyde]
> 500 µM	O=C(O)c1ccccc1NCc1c(O)ccc2ccccc12 [BL-0588, 2-(((2-hydroxynaphthalen-1-yl)methyl)amino)benzoic acid]
> 500 µM	O=C(O)c1ccccc1C#Cc1c(O)ccc2ccccc12 [BL-0604, 2-((2-hydroxynaphthalen-1-yl)ethynyl)benzoic acid]
3.2 µM	Oc1ccc2ccccc2c1/C=N/c1nn[nH]n1 [BL-0549, (E)-1-(((1H-tetrazol-5-yl)imino)methyl)naphthalen-2-ol]
> 500 µM	NCc1c(O)ccc2ccccc12 [BL-0592, 1-(aminomethyl)naphthalen-2-ol]
32 µM	Oc1ccc2c(/C=N/c3ccccc3)c(O)ccc2c1 [BL-0661 (HKi7), 1-((phenylimino)methyl)naphthalene-2,6-diol]
30.3 µM	O=Cc1c(O)ccc2cc(N3CCC3=O)ccc12 [BL-0738, 2-Hydroxy-6-(2-oxoazetidin-1-yl)-1-naphthaldehyde]
18 µM	COc1cccc2ccc(O)c(C=O)c12 [BL-0691, 2-hydroxy-8-methoxy-1-naphthaldehyde]
28.8 µM	O=Cc1c(O)ccc2cc(N3CCCCC3)ccc12 [BL-0736, 2-Hydroxy-6-(piperidin-1-yl)-1-naphthaldehyde]
4.6 µM	CCOc1ccc2c(C=O)c(O)ccc2c1 [BL-0794, 6-Ethoxy-2-hydroxy-1-naphthaldehyde]
3.9 µM	CCc1ccc2c(C=O)c(O)ccc2c1 [BL-0740, 6-Ethyl-2-hydroxy-1-naphthaldehyde]

IC50	SMILES
> 500 µM	O=Cc1ccccc1O [Compound 16, Salicylaldehyde]
> 500 µM	O=C(O)c1ccccc1/C=C/c1c(O)ccc2ccccc12 [BL-0605, (E)-2-(2-(2-hydroxynaphthalen-1-yl)vinyl)benzoic acid]
> 500 µM	c1ccc2c(c1)ccc1oncc12 [BL-0593, naphtho[1,2-d]isoxazole]
> 500 µM	CSc1c(O)ccc2ccccc12 [BL-707, 1-(methylthio)naphthalen-2-ol]
2.9 µM	O=C(O)c1ccccc1/N=C/c1c(O)ccc2ccccc12 [BL-0547 (Hki3), (E)-2-(((2-hydroxynaphthalen-1-yl)methylene)amino)benzoic acid]
58.6 µM	CC(=O)c1ccc2c(C=O)c(O)ccc2c1 [BL-0700 (HKi9), 6-acetyl-2-hydroxy-1-naphthaldehyde]
4 µM	C#Cc1ccc2c(C=O)c(O)ccc2c1 [BL-0742, 6-Ethynyl-2-hydroxy-1-naphthaldehyde]
3 µM	O=Cc1c(O)ccc2cc(-c3ccccc3)ccc12 [BL-0818, 2-Hydraxy-6-phenyl-1-naphthaldehyde]
15 µM	CC#Cc1ccc2c(C=O)c(O)ccc2c1 [BL-0817, 2-Hydroxy-6-(prop-1-yn-1-yl)-1-naphthaldehyde]
> 500 µM	OCC(CO)c1c(O)ccc2ccccc12 [BL-703, 2-(2-hydroxynaphthalen-1-yl)propane-1,3-diol]
> 500 µM	CS(=O)(=O)c1c(O)ccc2ccccc12 [BL-704, 1-(Methylsulfonyl)naphthalen-2-ol]
78.8 µM	CCCCc1ccc2c(C=O)c(O)ccc2c1 [BL-0743, 6-Butyl-2-hydroxy-1-naphthaldehyde]
> 500 µM	CC(NC(=O)c1ccccc1N)c1ccccc1 (centres unmarked) [Compound 4, 2-amino-N-(1-phenylethyl)benzamide]
31.9 µM	CC(O)c1ccc2c(C=O)c(O)ccc2c1 (centres unmarked) [BL-0745, 2-Hydroxy-6-(1-hydroxyethyl)-1-naphthaldehyde]
> 500 µM	O=Cc1nccc2ccccc12 [BL-0607, Isoquinoline-1-carbaldehyde]
45 µM	O=Cc1c(O)ccc2cccc(O)c12 [BL-0693, 2,8-dihydroxy-1-naphthaldehyde]
3.2 µM	O=C(O)c1cccc(/N=C/c2c(O)ccc3ccccc23)c1 [BL-0558, (E)-3-(((2-hydroxynaphthalen-1-yl)methylene)amino)benzoic acid]
> 500 µM	C[S+]([O-])c1c(O)ccc2ccccc12 (centres unmarked) [BL-705, 1-(Methylsulfinyl)naphthalen-2-ol]
> 500 µM	OC1(c2cccc3ccccc23)COC1 [BL-0695, 3-(naphthalen-1-yl)oxetan-3-ol]
1.2 µM	O=Cc1c(O)ccc2cc(-c3cccs3)ccc12 [BL-0819, 2-Hydroxy-6-(thiophen-2-yl)-1-naphthaldehyde]
5.1 µM	Cc1ccc2c(C=O)c(O)ccc2c1 [BL-0666 (HKi8), 2-hydroxy-6-methyl-1-naphthaldehyde]

SMILES	IC50
O=Cc1cc(-c2ccccc2)ccc1O [BL-0628 (HKi4), 4-Hydroxy-[1,1′-biphenyl]-3-carbaldehyde]	21.8 µM

Same assay, conditions: blocking of GFP-KRIT1 FERM domain binding to HEG1 matrix beads; read-out: IC50

SMILES	IC50
N=C(N)NCCC[C@H](NC(=O)[C@H](CCCNC(=N)N)NC(=O)[C@H](CCCNC(=N)N)NC(=O)[C@@H](N)CO)C(=O)N[C@@H](CC(=O)O)C(=O)N[C@@H](Cc1ccc(O)cc1)C(=O)N[C@@H](Cc1ccccc1)C(=O)O [HEG1 C-terminus 7-mer peptide, reference compound] (H-SRRRDYF-OH; N-terminus and C-terminus assumed)	0.41 µM

Same assay, conditions: inhibition of the HEG1-KRIT1 interaction, flow cytometry assay

IC50	SMILES
did not exhibit detectable activity	O=Cc1ccccc1O [Compound 16, Salicylaldehyde]
no inhibition	O=Cc1nccc2ccccc12 [BL-0607, Isoquinoline-1-carbaldehyde]
